From US20230321287A1, “RADIOLABELLED GRPR-ANTAGONIST FOR USE AS THERAGNOSTIC” (NOVARTIS AG, priority 2019, published 2023)

Experiments:
[1] = molecular target: T1, GRPR (Homo sapiens, UniProt P30550); experiment: lesion-level analysis, [68Ga]-NeoB PET versus conventional imaging; type: in vivo; set-up: from tissue; host or cells: tumour lesions in patients (breast, prostate, colorectal, NSCL, SCL cancer), in vivo; conditions: for Number of lesions: overall cancer N=19
Procedure: PET/CT or PET/MRI imaging is performed after the compound 1 administration ideally at 2 h 30 min ±30 min.
The spleen is the reference region to assess pathological [68Ga]-NeoB uptake.
NeoB in patients with malignancies known to overexpress GRPR.
Target sequence in this assay (P30550 whole entry): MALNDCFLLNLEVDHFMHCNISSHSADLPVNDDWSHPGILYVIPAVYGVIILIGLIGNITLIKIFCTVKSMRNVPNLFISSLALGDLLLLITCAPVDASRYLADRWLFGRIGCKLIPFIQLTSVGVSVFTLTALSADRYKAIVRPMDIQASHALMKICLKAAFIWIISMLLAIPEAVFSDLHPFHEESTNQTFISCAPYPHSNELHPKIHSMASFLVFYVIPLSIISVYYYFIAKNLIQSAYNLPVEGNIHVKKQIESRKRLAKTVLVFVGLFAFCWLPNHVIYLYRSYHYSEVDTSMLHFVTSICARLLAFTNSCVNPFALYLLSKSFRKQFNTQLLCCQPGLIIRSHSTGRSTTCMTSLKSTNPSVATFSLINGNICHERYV

[2] = in vivo
[3] = 6 patients with GIST; cited from earlier work
[4] = clinical; conditions: human
Source text: To obtain SUVmean aorta, a spherical volume with a diameter of two (2) cm should be measured within the aortic arch. All SUVr values above one (1) are considered as positive GRPR overexpression.
SUVr is the ratio between SUV mean of each lesion detected by [^68Ga]-NeoBOMB1 and the SUVmean of the region of reference.

[5] = maximum injected activity of 250 MBq
[6] = molecular target: T1, GRPR; conditions: GRPR expressed in breast, prostate and GIST; non-clinical models; cited from earlier work
Target sequence in this assay (P30550 whole entry, species assumed): as the sequence (P30550 whole entry) above

[7] = clinical; conditions: human, tumor lesions; for SUV at 2.5 h / SUV at 1.5 h: non-dosimetry group; for SUV at 2.5 h: breast tumors, 2 h 30 minutes; for SUV at 1.5 h: prostatic tumors, 1 h 30 minutes
Source text: (§1) The primary objective was to characterize preliminary targeting properties of [68Ga] NeoB in patients with malignancies known to overexpress GRPR. The primary efficacy endpoints were: • Number and location of tumor lesions detected by [68Ga]-NeoBOMB1 overall and for each tumor type • Calculation of the ratio tumor/background standard uptake value (SUV) and %injected dose per gram of tissue (ID/g) and calculation of absorbed dose (mGy/MBq) in tumor overall and for each tumor type.
(§2) The dosimetry group comprised only patients with breast cancer (N=2).

[8] = molecular target: T1, GRPR; experiment: clinical; conditions: dosimetry group, breast cancer N=2
Source text: as §1, §2
Target sequence in this assay (P30550 whole entry): as above

Compound: CC(C)CC(CC(C)C)NC(=O)[C@H](Cc1cnc[nH]1)NC(=O)CNC(=O)[C@@H](NC(=O)[C@H](C)NC(=O)[C@H](Cc1c[nH]c2ccccc12)NC(=O)[C@H](CCC(N)=O)NC(=O)[C@@H](Cc1ccccc1)NC(=O)COCC(=O)Nc1ccc(CNC(=O)CN2CCN(CC(=O)O)CCN(CC(=O)O)CCN(CC(=O)O)CC2)cc1)C(C)C [[68Ga]-NeoB, metal not drawn]
- Number of lesions ([1]; Nodal, [68Ga]-NeoB Total, conventional imaging Positive): 54
- Number of lesions ([1]; Nodal, [68Ga]-NeoB Total, conventional imaging Total): 55
- Number of lesions ([1]; Overall, [68Ga]-NeoB Negative, conventional imaging Positive): 167
- Number of lesions ([1]; Overall, [68Ga]-NeoB Negative, conventional imaging Total): 167
- Number of lesions ([1]; Overall, [68Ga]-NeoB Positive, conventional imaging Negative): 38
- Number of lesions ([1]; Overall, [68Ga]-NeoB Positive, conventional imaging Positive): 87
- Number of lesions ([1]; Overall, [68Ga]-NeoB Positive, conventional imaging Total): 125
- Number of lesions ([1]; Overall, [68Ga]-NeoB Total, conventional imaging Negative): 38
- Number of lesions ([1]; Overall, [68Ga]-NeoB Total, conventional imaging Positive): 254
- Number of lesions ([1]; Overall, [68Ga]-NeoB Total, conventional imaging Total): 292
- Number of lesions ([1]; Skeletal, [68Ga]-NeoB Negative, conventional imaging Positive): 85
- Number of lesions ([1]; Skeletal, [68Ga]-NeoB Negative, conventional imaging Total): 85
- Number of lesions ([1]; Skeletal, [68Ga]-NeoB Positive, conventional imaging Negative): 12
- Number of lesions ([1]; Skeletal, [68Ga]-NeoB Positive, conventional imaging Positive): 17
- Number of lesions ([1]; Skeletal, [68Ga]-NeoB Positive, conventional imaging Total): 29
- Number of lesions ([1]; Skeletal, [68Ga]-NeoB Total, conventional imaging Negative): 12
- Number of lesions ([1]; Skeletal, [68Ga]-NeoB Total, conventional imaging Positive): 102
- Number of lesions ([1]; Skeletal, [68Ga]-NeoB Total, conventional imaging Total): 114
- Number of lesions ([1]; Skin/Superficial, [68Ga]-NeoB Negative, conventional imaging Positive): 1
- Number of lesions ([1]; Skin/Superficial, [68Ga]-NeoB Negative, conventional imaging Total): 1
- Number of lesions ([1]; Skin/Superficial, [68Ga]-NeoB Positive, conventional imaging Negative): 0
- Number of lesions ([1]; Skin/Superficial, [68Ga]-NeoB Positive, conventional imaging Positive): 2
- Number of lesions ([1]; Skin/Superficial, [68Ga]-NeoB Positive, conventional imaging Total): 2
- Number of lesions ([1]; Skin/Superficial, [68Ga]-NeoB Total, conventional imaging Negative): 0
- Number of lesions ([1]; Skin/Superficial, [68Ga]-NeoB Total, conventional imaging Positive): 3
- Number of lesions ([1]; Skin/Superficial, [68Ga]-NeoB Total, conventional imaging Total): 3
- Number of lesions ([1]; Soft Tissus/Visceral, [68Ga]-NeoB Negative, conventional imaging Positive): 45
- Number of lesions ([1]; Soft Tissus/Visceral, [68Ga]-NeoB Negative, conventional imaging Total): 45
- Number of lesions ([1]; Soft Tissus/Visceral, [68Ga]-NeoB Positive, conventional imaging Negative): 25
- Number of lesions ([1]; Soft Tissus/Visceral, [68Ga]-NeoB Positive, conventional imaging Positive): 50
- Number of lesions ([1]; Soft Tissus/Visceral, [68Ga]-NeoB Positive, conventional imaging Total): 75
- Number of lesions ([1]; Soft Tissus/Visceral, [68Ga]-NeoB Total, conventional imaging Negative): 25
- Number of lesions ([1]; Soft Tissus/Visceral, [68Ga]-NeoB Total, conventional imaging Positive): 95
- Number of lesions ([1]; Soft Tissus/Visceral, [68Ga]-NeoB Total, conventional imaging Total): 120
- lesions identified by conventional imaging also identified by [68Ga]-NeoB ([1]; regardless the cancer type, N=19): 34.3%
- lesions identified by conventional imaging also identified by [68Ga]-NeoB ([1]; soft tissue and visceral tissue regardless the cancer type): 52.6%
- calculated human dose extrapolated from animal model [2]: 0.039 mSv/MBq
- effective dose, mean [3]: 0.029 ± 0.06 mSv/MBq
- SUV ([4]; lesion / region of reference): ~1 SUV
- SUV ([4]; lesion / spleen or MBP (aorta or heart)): > 1 SUV
- estimated effective dose per exam [5]: 7.25 mSv
- affinity to the GRPR [6]: high affinity
- SUV at 2.5 h ([7]; overall (breast tumors), highest SUVmax, overall): 23.1 SUV
- SUV at 1.5 h ([7]; overall locations (prostatic tumors), highest SUVmean, overall locations): 11.6 SUV
- SUV at 2 h ([7]; soft tissue/visceral (breast cancer), highest SUVmax, dosimetry group, breast cancer N=2, soft tissue/visceral, 2 h): 25.8 SUV
- SUV at 4 h ([7]; soft tissue/visceral (breast cancer), highest SUVmax, dosimetry group, breast cancer N=2, soft tissue/visceral): 26.4 SUV
- SUV at 0.25 h ([7]; soft tissue/visceral (breast cancer), highest SUVmean, dosimetry group, breast cancer N=2, soft tissue/visceral, 15 minutes): 9.24 SUV
- SUV at 4 h ([7]; soft tissue/visceral (breast cancer), highest SUVmean, dosimetry group, breast cancer N=2, soft tissue/visceral): 9.14 SUV
- SUV at 2.5 h ([7]; soft tissue/visceral (breast tumors), highest SUVmax, soft tissue/visceral): 22.1 SUV
- SUV at 1.5 h ([7]; soft tissue/visceral (prostatic tumors), highest SUVmean, soft tissue/visceral): 14 SUV
- time at which SUVmax values in lesions peaked [8]: 4 h
- time at which SUVmean values in lesions peaked [8]: 15 min
